Target: T1, bacteriophage T4 DNA polymerase (Enterobacteria phage T4, UniProt P04415)
T1 construct: made in house
T1 sequence (P04415 1-898): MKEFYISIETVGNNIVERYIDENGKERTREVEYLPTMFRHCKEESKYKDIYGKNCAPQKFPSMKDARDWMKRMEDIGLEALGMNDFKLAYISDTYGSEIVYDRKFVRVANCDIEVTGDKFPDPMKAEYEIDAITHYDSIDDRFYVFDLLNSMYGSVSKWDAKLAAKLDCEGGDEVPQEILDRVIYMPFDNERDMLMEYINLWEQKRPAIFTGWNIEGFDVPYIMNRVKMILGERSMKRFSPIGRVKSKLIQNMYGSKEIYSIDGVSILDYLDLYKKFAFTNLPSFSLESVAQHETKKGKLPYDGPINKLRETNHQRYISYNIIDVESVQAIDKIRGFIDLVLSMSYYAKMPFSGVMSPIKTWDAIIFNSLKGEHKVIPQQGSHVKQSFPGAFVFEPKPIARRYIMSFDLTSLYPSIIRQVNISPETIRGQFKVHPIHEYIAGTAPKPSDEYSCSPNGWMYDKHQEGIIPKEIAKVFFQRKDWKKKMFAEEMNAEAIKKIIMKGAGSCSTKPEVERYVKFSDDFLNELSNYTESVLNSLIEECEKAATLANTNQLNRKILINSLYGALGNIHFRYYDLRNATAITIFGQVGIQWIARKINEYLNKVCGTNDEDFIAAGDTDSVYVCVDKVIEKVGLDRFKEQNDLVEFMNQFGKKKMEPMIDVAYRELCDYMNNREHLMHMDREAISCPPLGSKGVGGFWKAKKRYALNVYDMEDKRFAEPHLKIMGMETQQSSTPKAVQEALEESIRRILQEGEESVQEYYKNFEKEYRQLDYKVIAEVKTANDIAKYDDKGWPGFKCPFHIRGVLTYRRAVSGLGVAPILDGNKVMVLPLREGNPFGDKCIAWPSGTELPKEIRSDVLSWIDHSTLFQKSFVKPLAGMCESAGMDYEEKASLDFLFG
Test: Counter-screen against bacteriophage T4 DNA polymerase
Type: biochemical
Details: for % inhibition T4 10' 2.5 / % inhibition T4 10' 5 / % inhibition T4 10' 10 / % inhibition T4 10' 20 / % inhibition T4 10' 40 / % inhibition T4 10' 80: read at 10'
Summary of the method: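 IC50 values come from dose-response testing of each compound against T4 DNA polymerase. This B-family polymerase was purified in-house and used as the counter-screen.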

Question: For `N#CC(=NNc1cc(C(F)(F)F)cc(C(F)(F)F)c1)C(=O)c1ccco1` [KU0264276], which “% inhibition T4 10'” value (DRC-2, concentration 2.5) is on record?
Answer: 9%

Question: And the “% inhibition T4 10'” value (DRC-2, concentration 5)?
Answer: 9%

Question: What about the “% inhibition T4 10'” value (DRC-2, concentration 20) of the same compound?
Answer: 13%

Question: What about the “% inhibition T4 10'” value (DRC-2, concentration 40) of the same compound?
Answer: 19%

Question: What about the “% inhibition T4 40'” value (DRC-2, concentration 2.5) of the same compound?
Answer: 7%

Question: And the “% inhibition T4 40'” value (DRC-2, concentration 5)?
Answer: 9%

Question: What about the “% inhibition T4 40'” value (DRC-2, concentration 10) of the same compound?
Answer: 13%

Question: What about the “% inhibition T4 40'” value (DRC-2, concentration 20) of the same compound?
Answer: 13%

Question: What about the “% inhibition T4 40'” value (DRC-2, concentration 40) of the same compound?
Answer: 19%

Question: What about the “% inhibition T4 40'” value (DRC-2, concentration 80) of the same compound?
Answer: 19%

Question: And the “% inhibition T4 90'” value (DRC-2, concentration 5)?
Answer: 7%

Question: What about the “% inhibition T4 180'” value (DRC-2, concentration 40) of the same compound?
Answer: 13%

Question: What about the “% inhibition T4 180'” value (DRC-2, concentration 80) of the same compound?
Answer: 19%

Question: `Cc1cccc(-c2noc(C(=O)NNC(=O)C(Cl)(Cl)Cl)n2)c1` [KU0266208] was tested. Which “% inhibition T4 10' 2.5” value (DRC-1, concentration 2.5) did it give?
Answer: 1.001%

Question: What about the “% inhibition T4 10' 5” value (DRC-1, concentration 5) of the same compound?
Answer: -2.3946%

Question: What about the “% inhibition T4 10' 10” value (DRC-1, concentration 10) of the same compound?
Answer: 2.959%

Question: What about the “% inhibition T4 10' 20” value (DRC-1, concentration 20) of the same compound?
Answer: 3.222%

Question: What about the “% inhibition T4 10' 40” value (DRC-1, concentration 40) of the same compound?
Answer: 8.397%

Question: And the “% inhibition T4 10' 80” value (DRC-1, concentration 80)?
Answer: 7.879%

Question: And the “% inhibition T4 70' 2.5” value (DRC-1, read at 70', concentration 2.5)?
Answer: 1.555%

Question: What about the “% inhibition T4 70' 5” value (DRC-1, read at 70', concentration 5) of the same compound?
Answer: -1.004%

Question: And the “% inhibition T4 70' 10” value (DRC-1, read at 70', concentration 10)?
Answer: 1.596%

Question: What about the “% inhibition T4 70' 20” value (DRC-1, read at 70', concentration 20) of the same compound?
Answer: 0.3208%

Question: And the “% inhibition T4 70' 40” value (DRC-1, read at 70', concentration 40)?
Answer: 4.827%

Question: And the “% inhibition T4 70' 80” value (DRC-1, read at 70', concentration 80)?
Answer: 4.906%

Question: What about the “% inhibition T4 130' 2.5” value (DRC-1, read at 130', concentration 2.5) of the same compound?
Answer: -1.03%

Question: And the “% inhibition T4 130' 5” value (DRC-1, read at 130', concentration 5)?
Answer: -3.982%

Question: And the “% inhibition T4 130' 10” value (DRC-1, read at 130', concentration 10)?
Answer: -1.107%

Question: What about the “% inhibition T4 130' 20” value (DRC-1, read at 130', concentration 20) of the same compound?
Answer: -3.27%

Question: And the “% inhibition T4 130' 40” value (DRC-1, read at 130', concentration 40)?
Answer: 2.252%

Question: And the “% inhibition T4 130' 80” value (DRC-1, read at 130', concentration 80)?
Answer: 3.008%

Question: What about the “% inhibition T4 10' 2.5” value (DRC-2, concentration 2.5) of the same compound?
Answer: 7%

Question: And the “% inhibition T4 10' 5” value (DRC-2, concentration 5)?
Answer: -1.26%

Question: And the “% inhibition T4 10' 10” value (DRC-2, concentration 10)?
Answer: -5%

Question: What about the “% inhibition T4 10' 20” value (DRC-2, concentration 20) of the same compound?
Answer: -8%

Question: And the “% inhibition T4 10' 40” value (DRC-2, concentration 40)?
Answer: -12%

Question: What about the “% inhibition T4 10' 80” value (DRC-2, concentration 80) of the same compound?
Answer: -4.34%

Question: And the “% inhibition T4 40' 2.5” value (DRC-2, read at 40', concentration 2.5)?
Answer: 7%

Question: What about the “% inhibition T4 40' 5” value (DRC-2, read at 40', concentration 5) of the same compound?
Answer: -1.26%

Question: And the “% inhibition T4 40' 10” value (DRC-2, read at 40', concentration 10)?
Answer: -5%

Question: What about the “% inhibition T4 40' 20” value (DRC-2, read at 40', concentration 20) of the same compound?
Answer: -8%

Question: What about the “% inhibition T4 40' 40” value (DRC-2, read at 40', concentration 40) of the same compound?
Answer: -12%

Question: What about the “% inhibition T4 40' 80” value (DRC-2, read at 40', concentration 80) of the same compound?
Answer: -4.34%

Question: And the “% inhibition T4 90' 2.5” value (DRC-2, read at 90', concentration 2.5)?
Answer: 7%

Question: What about the “% inhibition T4 90' 5” value (DRC-2, read at 90', concentration 5) of the same compound?
Answer: -1.21%

Question: What about the “% inhibition T4 90' 10” value (DRC-2, read at 90', concentration 10) of the same compound?
Answer: -5%

Question: And the “% inhibition T4 90' 20” value (DRC-2, read at 90', concentration 20)?
Answer: -8%

Question: And the “% inhibition T4 90' 40” value (DRC-2, read at 90', concentration 40)?
Answer: -10%

Question: And the “% inhibition T4 90' 80” value (DRC-2, read at 90', concentration 80)?
Answer: -1.44%

Question: And the “% inhibition T4 180' 2.5” value (DRC-2, read at 180', concentration 2.5)?
Answer: 1.78%

Question: What about the “% inhibition T4 180' 5” value (DRC-2, read at 180', concentration 5) of the same compound?
Answer: -5.37%

Question: What about the “% inhibition T4 180' 10” value (DRC-2, read at 180', concentration 10) of the same compound?
Answer: -9%

Question: What about the “% inhibition T4 180' 20” value (DRC-2, read at 180', concentration 20) of the same compound?
Answer: -11%

Question: What about the “% inhibition T4 180' 40” value (DRC-2, read at 180', concentration 40) of the same compound?
Answer: -9%

Question: What about the “% inhibition T4 180' 80” value (DRC-2, read at 180', concentration 80) of the same compound?
Answer: 0.715%

Question: `Cc1ccc(-n2nnc(C(=O)O)c2-c2ccccn2)c(F)c1` [Molecule 54, Cc1ccc(c(c1)F)n1nnc(c1c1ccccn1)C(=O)O] was tested. Which “% inhibition T4 10'” value (DRC-2, concentration 2.5) did it give?
Answer: 18%

Question: What about the “% inhibition T4 10'” value (DRC-2, concentration 5) of the same compound?
Answer: 23%

Question: What about the “% inhibition T4 10'” value (DRC-2, concentration 10) of the same compound?
Answer: 30%

Question: And the “% inhibition T4 10'” value (DRC-2, concentration 40)?
Answer: 27%

Question: And the “% inhibition T4 10'” value (DRC-2, concentration 80)?
Answer: 24%

Question: What about the “% inhibition T4 40'” value (DRC-2, concentration 2.5) of the same compound?
Answer: 18%

Question: What about the “% inhibition T4 40'” value (DRC-2, concentration 5) of the same compound?
Answer: 23%

Question: And the “% inhibition T4 40'” value (DRC-2, concentration 10)?
Answer: 30%

Question: And the “% inhibition T4 40'” value (DRC-2, concentration 40)?
Answer: 27%

Question: What about the “% inhibition T4 40'” value (DRC-2, concentration 80) of the same compound?
Answer: 24%

Question: What about the “% inhibition T4 90'” value (DRC-2, concentration 2.5) of the same compound?
Answer: 17%

Question: And the “% inhibition T4 90'” value (DRC-2, concentration 10)?
Answer: 27%

Question: And the “% inhibition T4 90'” value (DRC-2, concentration 20)?
Answer: 22%

Question: And the “% inhibition T4 90'” value (DRC-2, concentration 40)?
Answer: 23%

Question: What about the “% inhibition T4 90'” value (DRC-2, concentration 80) of the same compound?
Answer: 22%

Question: And the “% inhibition T4 180'” value (DRC-2, concentration 10)?
Answer: 22%

Question: What about the “% inhibition T4 180'” value (DRC-2, concentration 20) of the same compound?
Answer: 17%

Question: What about the “% inhibition T4 180'” value (DRC-2, concentration 40) of the same compound?
Answer: 20%

Question: What about the “% inhibition T4 180'” value (DRC-2, concentration 80) of the same compound?
Answer: 20%

— article PMC9090415, “Discovery of small molecule inhibitors of Plasmodium falciparum apicoplast DNA polymerase” (Journal of Enzyme Inhibition and Medicinal Chemistry, 2022)
